Among the data in the SangsterLogP compilation are logP and logD values, retold here.

One data set is described as follows: method code SF, from Hansch, C. & Leo, A. (1987). Log P database [Dataset]. Pomona College Medicinal Chemistry Project.
Settings: not given
Take `CCCCNC(=O)n1c(NC(=O)OC)nc2ccccc21`: the logP (in general, the decadic logarithm of the partition coefficient of the neutral form, usually between octanol and water) came out at 2.42. Regarding `CCCC(=O)OCC(O)CO` (stereo unspecified), the logP is -0.17. The molecule `CC(=O)Nc1ccc(S(=O)(=O)F)cc1` came in with a lipophilicity (logP) of 2.17. Same read-out and setting: the result for `FC(F)OC(Cl)C(F)(F)F` (stereo unspecified) reads 2.06; that for `Oc1ccccc1C(F)(F)F`, 2.73; that for `CN(C)CCc1cccs1`, 1.99.

In turn, `O=c1[nH]cc(Br)c(=O)[nH]1` displayed a logP of -0.21.

In turn, `CN(C(=O)CCI)c1ccc(S(=O)(=O)N(C)C)cc1` showed a logP of 1.39.

As to `CCCS`, the logP was determined as 1.81. In the case of `[N-]=[N+]=Nc1ccccc1`, the logP came to 2.59.

On to `CC1CO1` (stereo unspecified), for which the logP stood at 0.03. The molecule `O=[N+]([O-])c1ccc(C=Cc2nccc(Cl)n2)o1` gave a logP of 1.31. The same measure, in the same setting: next, `O=C(O)COc1ccc(Cl)c([N+](=O)[O-])c1`: 1.85. Same read-out and setting: next, `O=C(Nc1ccc(Cl)c(Cl)c1)c1ccccc1`: 4.42; `CCOC(=O)C(=Cc1ccccc1OC)C(C)=O`: 2.39. Still for that read-out and setting: the result for `CCC1(c2ccccc2)C(=O)NCNC1=O` reads 0.91; that for `OCCC(F)(F)F`, 0.39. As for `CCC1(C(C)CC(C)O)C(=O)NC(=O)NC1=O` (stereo unspecified), the logP was determined as 0.35. On the same count and under the same terms, next, `c1ccc(-c2cccs2)cc1`: 3.74; `OCc1ccoc1`: 0.3; `O=C(O)CNc1ccccc1`: 0.62. `CN(C)C(=S)Nc1ccccc1` displayed a logP of 1.04. Same read-out and setting: next, `CCOP(=S)(OCC)Oc1ccc(SC)c(Cl)c1`: 5.06; `N#CCC(=O)Nc1ccc(Cl)c(Cl)c1`: 2.72.

In the case of `Nc1cccc2cc3ccccc3nc12`, the logP came to 3.26. For `NC(=O)c1cccs1`, the logP amounted to 0.52. On the same count and under the same terms, the result for `CCc1ccsc1` reads 2.82; that for `O=C(NCC(O)CO)Nc1ccccc1` (stereo unspecified), 0.28; that for `COC1=C[C@@]23CCCN2CCc2cc4c(cc2[C@@H]3[C@@H]1O)OCO4`, 0.84. `c1cnc2ccc3ncccc3c2c1` yielded a logP of 2.05. Same read-out and setting: next, `O=C(CNC(=O)c1ccccc1)Oc1ccc(F)cc1`: 2.46; `CC(=O)Nc1ccc2oc(C)c(C)c(=O)c2c1`: 1.79. With `O=S1(=O)NC(C(F)(F)F)=Nc2cc(Cl)ccc21`, the logP is 1.65. In turn, `CN(C)C(=O)Oc1ccccc1Br` gave a logP of 2.17. Still for that read-out and setting: the result for `Cn1cnc2ccccc2c1=O` reads 0.69; that for `NC(=O)c1ccc(C(F)(F)F)cc1`, 1.71; that for `CSC(=O)Nc1ccccc1`, 2.4. Still for that read-out and setting: the result for `CCCCN(CCCC)C(=O)COc1ccccc1` reads 3.23. Still for that read-out and setting: the result for `CCOC(=O)C(=Cc1cccc(C)c1)C(=O)OCC` reads 3.55; that for `CCC(=O)Nc1ccccc1`, 1.61.

The molecule `COc1cc(C=NOC(=O)c2cc(OC)c(OC)c(OC)c2)ccc1OCCO` gave a logP of 2.7. Same read-out and setting: the result for `NC(=O)C(=Cc1cccc(F)c1)C(N)=O` reads 0.1. `CCOCCOC(=O)C(C#N)=CC(C)(C)NCc1ccc(Cl)cc1` yielded a logP of 4.05. On the same count and under the same terms, next, `c1ccc(CNc2ccccc2)cc1`: 3.13; `CC(=C(C#N)C#N)c1ccccc1`: 2.1. On the same count and under the same terms, the result for `O=[N+]([O-])c1cc[n+]([O-])cc1` reads -0.55. The same measure, in the same setting: the result for `c1ccc2c(c1)Cc1ccccc1C2` reads 4.25.

The molecule `O=C(Nc1ccc(Cl)c(Cl)c1)C(F)F` returned a logP of 3.18. On the same count and under the same terms, next, `COC(=O)CNC(=O)c1ccc([N+](=O)[O-])cc1`: 0.98; `CCC(C)c1ccccc1OCC(=O)O` (stereo unspecified): 3.32. For the molecule `COc1ccc2cnccc2c1`, the logP worked out at 2.22. Still for that read-out and setting: next, `C1OCOCO1`: -0.43; `O=c1cc(-c2ccc(O)cc2)oc2ccccc12`: 3.2.

Regarding `CCOC(=O)C(=O)OCC`, the logP stood at 0.56. Same read-out and setting: the result for `COc1cccc2c1C(=O)c1c(O)c3c(c(O)c1C2=O)CC(O)(C(=O)CN1CCOCC1)CC3OC1CC(N)C(O)C(C)O1` (stereo unspecified) reads 0.23; that for `FC(F)(F)Br`, 1.86; that for `O=c1cncc[nH]1`, -1.49. As for `ClC(Cl)(Cl)Sc1ccccc1`, the logP is 3.78. The same measure, in the same setting: the result for `CCOC(=O)C(Cc1ccccc1)C(=O)OCC` reads 2.76; that for `CCOC(N)=O`, -0.15. `Nc1ccccc1S` had a lipophilicity (logP) of 1.43. Consider `CNC(=O)CSP(=S)(OC)OC`, for which the logP is 0.8. On the same count and under the same terms, next, `Oc1ccccc1-c1ccccc1`: 3.09. On the same count and under the same terms, next, `O=c1[nH]c(=O)n([C@H]2C[C@H](O)[C@@H](CO)O2)cc1F`: -1.16. The same measure, in the same setting: next, `NC(=O)NCc1ccccc1`: 0.73; `CCOC(=O)C(=Cc1ccccc1)C(C)=O`: 2.21; `O=C1C=CCCC1`: 0.61. `COc1ccccc1C=C(C(C)=O)C(C)=O` displayed a logP of 1.73. Consider `CCCNP(=O)(OC)Oc1cc(Cl)c(Cl)cc1Cl` (stereo unspecified), for which the logP came out at 3.7. The same measure, in the same setting: the result for `CC(=O)OC[C@@H](OC(C)=O)[C@@H](OC(C)=O)[C@H](OC(C)=O)[C@H](C=O)OC(C)=O` reads 0.63. As for `CN(C)/N=N/c1cc(C#N)cc(C#N)c1`, the logP was 2.18.

Molecule `O=NN(CCF)C(=O)NCCCl` gave a log partition coefficient (logP) of 0.95. The molecule `C(#Cc1ccccc1)c1ccccc1` yielded a logP of 4.78. Same read-out and setting: next, `CC(C)C(=O)Nc1ccccc1`: 1.95; `CCOC(=O)C(=Cc1ccccc1F)C(=O)OCC`: 3.04; `c1ccc(COc2ccccc2)cc1`: 3.79. The same measure, in the same setting: the result for `CN(N=O)C(=O)N[C@H]1C(O)O[C@H](CO)[C@@H](O)[C@@H]1O` (stereo partly specified) reads -1.45; that for `CCNC(N)=O`, -0.74; that for `CC1=NCCN1`, 0.52.

The molecule `N#CCc1ccco1` registered a logP of 0.85. Same read-out and setting: next, `c1ccc(-c2nc3ccccc3s2)cc1`: 4.26; `CC(C)CC(CC(C)C)OC(=O)c1ccc(NC(=O)N(C)C)cc1Cl`: 5.15.

Staying with this data set, now noted: pH 1.0.
As for `O=C(O)CNC(=O)c1ccccc1`, the log distribution coefficient (logD) (as a rule, lipophilicity at a set pH, counting ionised and neutral species) was found to be 0.31.

Still in this data set, the particulars now being: pH 4.2.
`Nc1nc(=O)c2[nH]nnc2[nH]1` returned a log distribution coefficient (logD) of -0.71.

Staying with this data set, now noted: pH 7.0.
Take `CO[C@H]1[C@@H](O)[C@@H](C)O[C@H](O[C@H]2[C@H](Oc3cccc4c(O)c5c(=O)oc6ccc(C)c7c(=O)oc(c34)c5c67)O[C@H](C)[C@H](O)[C@@H]2O)[C@@H]1O`: the logD was 1.8. `CNc1ncnc2ccsc12` returned a logD of 1.43. `O=CNc1cccc([N+](=O)[O-])c1`: the logD turned out to be 1.4. The same measure, in the same setting: the result for `CN(C)c1ccc(S(N)(=O)=O)cc1` reads 0.76.

The same data set, now with this note: pH 7.4.
With `CCCNc1c(C)n(C)c(=O)n(-c2ccccc2)c1=O`, the logD was 1.2. On to `CC(=O)OC[C@]12CCC(C)=C[C@H]1O[C@@H]1[C@H](O)[C@@H](OC(C)=O)[C@@]2(C)[C@]12CO2`, for which the logD is 0.91. The same measure, in the same setting: next, `COc1ccc(-n2c(C)c(N(C)C)c(=O)n(C)c2=O)cc1`: 1.96; `Nc1ccc(C(F)(F)F)cc1`: 2.39.

Staying with this data set, now noted: pH 8.0.
`O=C(c1ccccc1)c1cccnc1` came in with a logD of 1.88. On the same count and under the same terms, next, `COc1ccc(-c2nc3ccccc3[nH]2)c(OC)c1`: 2.59.

The data set is the same for the next values; noted with them: pH 13.0.
Molecule `C=CCN(CC=C)CC=C` showed a logD of 2.59. The same measure, in the same setting: next, `COc1cccc(Cc2cnc(N)nc2N)c1OC`: 1.62.
